Drawing on patent publication US10010520B2, “Combined application of isothiocyanate compound and anti-cancer medicine” (JC (WUXI) COMPANY, INC., priority 2013, dated 2018), this text covers IC50 for 31 compounds.

“And” between values parts separate entries of the source, which are not always exact repeats. Identical values can stand only once. Counter-ions that a name gives are not always drawn. Like-named read-outs stand apart in the source and are kept apart here.

Assay [1] has as its system pancreatic cancer cells PANC-1. Put plainly: CellTiter-Glo cell viability, drugs alone or in combination, PANC-1 cells. Format: cell-based, human. The method, then:
(§1) isothiocyanates or derivatives thereof and DNA-effecting or influencing anticancer drugs, kinase-inhibiting anticancer drugs or hormonal anticancer drugs for endocrine therapy were administered separately or in combination to cancer cells. Cells were seeded into 384-well plates, and cultured for 24 hours in a CO2 incubator. Drugs were dissolved in DMSO and diluted to 9 concentration-gradients in 96 well plates, and then added to corresponding cells in 384-well plates, in which the concentrations of DMSO in 384 well plates were less than 1%. Triplicate wells were set for each concentration. After administration, the cells were cultured in the CO2 incubator for another 72 hrs, and afterwards, cell viability was tested by using CellTiter-Glo® reagent and luminescence detector. And IC50 values of each administration group were calculated.
(§2) CI value was calculated by the following formula: CI=(Am)50/(As)50+(Bm)50/(Bs)50,
(§3) Triplicate wells were set for each co-administration cell well.
(§4) After administration, cells were cultured in the CO2 incubator for another 72 hrs, and afterwards, cell viability was tested by using CellTiter-Glo® reagent and luminescence detector. Curves were plotted according to concentrations or logarithm concentrations of drug A vs cell inhibition rate in the corresponding cell well, and IC50, i.e. (Am)50 was calculated.
(§5) 9 concentration gradients of drug A were set (A1, A2, A3, A4, A5, A6, A7, A8, A9), and administrated alone to the corresponding cells in the 384 well plate, and triplicate wells were set for each administration concentration. After administration, the cells were cultured in the CO2 incubator for another 72 hrs, and afterwards, cell viability was tested by using CellTiter-Glo® reagent and luminescence detector. Curves were plotted according to concentration or logarithm concentration of drug A vs the cell inhibition rate in the corresponding cell well, and IC50, i.e. (As)50 was calculated.
(§6) After administration, the cells were cultured in the CO2 incubator for another 72 hrs, and afterwards, cell viability was tested by using CellTiter-Glo® reagent and luminescence detector.

Assay [2] deals with human leukemia HL-60 cells. Nature of the assay: CellTiter-Glo cell viability, drugs alone or in combination, HL-60 cells. Conditions: read-out: (Bs)50, IC50 of drug B when used alone. Format: cell-based. The procedure:
as §1, §2, §3, §4, §5, §6
A general note: ATP-based viability assays read luminescence as a measure of living cells.

The next assay relates to LNCaP cells. Nature of the assay: CellTiter-Glo cell viability, drugs alone or in combination, LNCaP cells. The class given is cell-based, human. The procedure: Cell culture: Androgen-dependent human prostate cancer cells LNCaP, from Shanghai Medicilon Ltd., were placed in a 37° C., 5% CO2 cell incubator, and were cultured in RPMI1640 culture medium with 10% FBS. Androgen-independent human prostate cancer cells DU145, PC-3, from Shanghai Medicilon Ltd., were placed in a 37° C., 5% CO2 cell incubator, and were cultured in F12 culture medium with 10% FBS.
as §1, §2, §3, §4, §5, §6

For assay [3], the system named is human kidney cancer cells 786-O. Put plainly: CellTiter-Glo cell viability, drugs alone or in combination, 786-O cells. Conditions: 786-0, 72 h, read-out: (Bs)50, IC50 of drug B when used alone, 786-O cells, 72 hrs.
A further assay concerns OVCAR-3 cells. Put plainly: CellTiter-Glo cell viability, drugs alone or in combination, OVCAR-3 cells.
A further assay concerns U251 cells. Put plainly: CellTiter-Glo cell viability, drugs alone or in combination, U251 cells. Conditions: 72 hrs.
Another assay deals with Jurkat E6-1 cells. Put plainly: CellTiter-Glo cell viability, drugs alone or in combination, Jurkat E6-1 cells. Format: cell-based, human. Conditions: Homo sapiens, read-out: (Bs)50, IC50 of drug B when used alone. The procedure:
as §1, §2, §3, §4, §5, §6

For another assay, the system named is Saos-2 cells. Nature of the assay: CellTiter-Glo cell viability, drugs alone or in combination, Saos-2 cells. Conditions: Homo sapiens, SAOS-2, 72 h, Saos-2 cells; 72 hrs; read-out: (Bs)50, IC50 of drug B when used alone. Format: cell-based, human. The procedure: as §1, §2, §3, §4, §5, §6
For assay [4], the system named is Human breast cancer MDA-MB-231 cells. Nature of the assay: CellTiter-Glo cell viability, drugs alone or in combination, MDA-MB-231 cells. Conditions: Homo sapiens, MDA-MB-231, 72 h, read-out: (Bs)50, IC50 of drug B when used alone, MDA-MB-231 cells; 72 hrs.
The mark [5] stands for this setting: Homo sapiens, PANC-1 cells, 72 hrs, read-out: (As)50, IC50 of drug A when used alone.
[6] abbreviates: Homo sapiens, LNCaP, 72 h, LNCaP cells, 72 hrs, read-out: (As)50, IC50 of drug A when used alone.
The mark [7] stands for this setting: Homo sapiens, U-251, 72 h, read-out: (Bs)50, IC50 of drug B when used alone, U251 cells.
Where [8] appears, read: PANC-1 cells, 72 hrs, read-out: (As)50, IC50 of drug A when used alone.
The mark [9] stands for this setting: LNCaP cells, 72 hrs, read-out: (As)50, IC50 of drug A when used alone.

As for `COc1ccc(CN=C=S)cc1` [4-methoxy-benzyl isothiocyanate], the IC50 (in general, the concentration needed to halve the response being measured) in [1] (setting [5]) amounted to 11.3 µM.

For arsenic trioxide, the IC50 in [2] (72 hrs) was 2.75 µM.

Consider `Cc1cn(-c2cc(NC(=O)c3ccc(C)c(Nc4nccc(-c5cccnc5)n4)c3)cc(C(F)(F)F)c2)cn1` [nilotinib], for which the IC50 in [2] (Homo sapiens, HL-60, 72 h) worked out at 3.9 µM.

In the case of `S=C=NCCCc1ccccc1` [3-Phenylpropyl isothiocyanate, 3-phenyl propyl isothiocyanate], in the assay on LNCaP cells (setting [6]), the half-maximal inhibitory concentration (IC50) came out at 24.5 µM.

For `CNC(=O)c1cc(Oc2ccc(NC(=O)Nc3ccc(Cl)c(C(F)(F)F)c3)cc2)ccn1` [Sorafenib, sorafenib, reference compound], the IC50 in assay [3] came out at 6.99 µM.

`Cc1ccc(Nc2nccc(N(C)c3ccc4c(C)n(C)nc4c3)n2)cc1S(N)(=O)=O` [Pazopanib, pazopanib, reference compound]: the half-maximal inhibitory concentration (IC50) in [3] is 199 µM.

As for `N.N.O=C([O-])C1(C(=O)[O-])CCC1.[Pt+2]` [carboplatin, Carboplatin], the half-maximal inhibitory concentration (IC50) with OVCAR-3 cells (read-out: (Bs)50, IC50 of drug B when used alone, OVCAR-3 cells, 72 hrs) is 58.9 µM and 38.7 µM.

With `S=C=NCCCCc1ccccc1` [4-Phenbutyl isothiocyanate, 4-phenylbutyl isothiocyanate], the IC50 was determined as 26.9 µM in assay [1] (setting [5]) and 17.5 µM in the assay with LNCaP cells (setting [6]).

For the compound `C#Cc1cccc(Nc2ncnc3cc(OCCOC)c(OCCOC)cc23)c1` [erlotinib, reference compound], in assay [1] (Homo sapiens, PANC-1, 72 h, PANC-1 cells, 72 hrs, read-out: (Bs)50, IC50 of drug B when used alone), the IC50 is more than 100 µM.

Regarding `C[S+]([O-])CCCCN=C=S` (stereo not drawn) [sulforaphane, 1-isothiocyanate-4-methanesulfonyl butane], the IC50 in [1] (Homo sapiens, PANC-1, 72 h, PANC-1 cells, 72 hrs, read-out: (As)50, IC50 of drug A when used alone) is 14.3 µM; in the assay on LNCaP cells (setting [6]) it was 15.3 µM.

Turning to `C=CCN=C=S` [allyl isothiocyanate], in assay [1] (setting [5]), the IC50 was found to be 116 µM.

As for `O=P1(N(CCCl)CCCl)NCCCO1` (stereo not drawn) [cyclophosphamide, Cyclophosphamide], the IC50 in the assay with OVCAR-3 cells (Homo sapiens, OVCAR-3, 72 h, read-out: (Bs)50, IC50 of drug B when used alone) is more than 100 µM.

Consider `Nc1nc(F)nc2c1ncn2[C@@H]1O[C@H](CO)[C@@H](O)[C@@H]1O` [fludarabine, Fludarabine], for which the IC50 in assay [2] (Homo sapiens, HL-60, 72 h) came to 1.57 µM.

Consider `COc1cccc2c1C(=O)c1c(O)c3c(c(O)c1C2=O)C[C@@](O)(C(C)=O)C[C@@H]3O[C@H]1C[C@H](N)[C@H](O)[C@H](C)O1` [daunorubicin, Daunorubicin], for which, in assay [2] (72 hrs), the IC50 came to 0.236 µM.

In the case of `O=NN(CCCl)C(=O)NC1CCCCC1` [Lomustine], the IC50 with U251 cells (setting [7]) was found to be 65.4 µM; in the assay with U251 cells (read-out: (Bs)50, IC50 of drug B when used alone, U251 cells), 115 µM.

With `CC[C@@]1(O)C(=O)OCc2c1cc1n(c2=O)Cc2cc3c(CN(C)C)c(O)ccc3nc2-1` [topotecan, Topotecan], the IC50 in the assay with OVCAR-3 cells (Homo sapiens, OVCAR-3, 72 h, read-out: (Bs)50, IC50 of drug B when used alone, OVCAR-3 cells, 72 hrs) is 0.0774 µM.

On to `S=C=NCCCCCCc1ccccc1` [6-Phenhexyl isothiocyanate, 6-phenyl-hexyl isothiocyanate], for which the IC50 in assay [1] (setting [5]) was determined as 30.9 µM; in the assay with LNCaP cells (setting [6]) it was 18.8 µM.

Regarding `CC[C@]1(O)C[C@H]2CN(CCc3c([nH]c4ccccc34)[C@@](C(=O)OC)(c3cc4c(cc3OC)N(C=O)[C@H]3[C@@](O)(C(=O)OC)[C@H](OC(C)=O)[C@]5(CC)C=CCN6CC[C@]43[C@@H]65)C2)C1` [vincristine sulfate], the IC50 in assay [2] (72 hrs) worked out at 0.0126 µM.

Consider `CCNC(=O)[C@@H]1CCCN1C(=O)[C@H](CCCNC(=N)N)NC(=O)[C@H](CC(C)C)NC(=O)[C@@H](CC(C)C)NC(=O)[C@H](Cc1ccc(O)cc1)NC(=O)[C@H](CO)NC(=O)[C@H](Cc1c[nH]c2ccccc12)NC(=O)[C@H](Cc1c[nH]cn1)NC(=O)[C@@H]1CCC(=O)N1` [leuprorelin, reference compound], for which the IC50 in the assay on LNCaP cells (LNCaP cells, 72 hrs, read-out: (Bs)50, IC50 of drug B when used alone) is 323 µM.

For the compound `CC(=O)N[C@@H](CSC(=S)NCCc1ccccc1)C(=O)O` [phenethyl isothiocyanate-N-acetylcysteine adduct], the IC50 in assay [1] (setting [8]) amounted to 28.6 µM; in the assay on LNCaP cells (setting [9]) it was 16.4 µM.

For the compound `S=C=NCc1ccc(Cl)cc1` [4-chloro-benzyl isothiocyanate], the IC50 came out at 34 µM in assay [1] (Homo sapiens, PANC-1, 72 h, read-out: (As)50, IC50 of drug A when used alone); 17.3 µM in the assay with LNCaP cells (Homo sapiens, LNCaP, 72 h, read-out: (As)50, IC50 of drug A when used alone); 18.2 µM in the assay on OVCAR-3 cells (Homo sapiens, OVCAR-3, 72 h, read-out: (As)50, IC50 of drug A when used alone).

Regarding `Cn1c(CCCC(=O)O)nc2cc(N(CCCl)CCCl)ccc21` [bendamustine, Bendamustine, reference compound], the IC50 in the assay with Jurkat E6-1 cells (Jurkat E6.1, 72 h) was more than 100 µM.

`S=C=NC(c1ccccc1)(c1ccccc1)c1ccccc1` [trityl isothiocyanate]: the IC50 in assay [1] (setting [5]) was more than 50 µM; in the assay on LNCaP cells (setting [6]), 238 µM.

As for `CC(C)C[C@H](NC(=O)[C@H](Cc1ccccc1)NC(=O)c1cnccn1)B(O)O` [bortezomib, reference compound], the IC50 in the assay with Saos-2 cells turned out to be 0.807 µM.

Take `S=C=NCCCc1ccccc1` [Phenylpropyl isothiocyanate, phenylpropyl isothiocyanate]: the values for the IC50 (in [1] (setting [5]); with LNCaP cells (setting [9])) were 35.1 µM and 22.9 µM, respectively.

For `S=C=Nc1ccccc1` [Phenyl isothiocyanate, phenyl isothiocyanate], the IC50 in assay [1] (setting [5]) was 77.2 µM; in the assay on LNCaP cells (setting [6]), 43.6 µM.

On to `CC(=O)O[C@H]1C(=O)[C@@]2(C)[C@H]([C@H](OC(=O)c3ccccc3)[C@]3(O)C[C@H](OC(=O)[C@H](O)[C@@H](NC(=O)c4ccccc4)c4ccccc4)C(C)=C1C3(C)C)[C@]1(OC(C)=O)CO[C@@H]1C[C@@H]2O` [Paclitaxel, paclitaxel, reference compound], for which the IC50 in [4] came to 0.0199 µM.

Regarding `CC(N=C=S)c1ccccc1` [L-ethyl phenyl isothiocyanate], the IC50 was determined as 24 µM in assay [1] (setting [8]) and 43.6 µM in the assay with OVCAR-3 cells (read-out: (As)50, IC50 of drug A when used alone, OVCAR-3 cells, 72 hrs).

As for `CO[C@H]1C[C@@H]2CC[C@@H](C)[C@@](O)(O2)C(=O)C(=O)N2CCCC[C@H]2C(=O)O[C@H]([C@H](C)C[C@@H]2CC[C@@H](OCCO)[C@H](OC)C2)CC(=O)[C@H](C)/C=C(\C)[C@@H](O)[C@@H](OC)C(=O)[C@H](C)C[C@H](C)/C=C/C=C/C=C/1C` [everolimus], the IC50 with U251 cells (setting [7]) stood at 23.7 µM.

On to `C#CCC(Cc1cnc2nc(N)nc(N)c2n1)c1ccc(C(=O)N[C@@H](CCC(=O)O)C(=O)O)cc1` (stereo partly drawn) [Pralatrexate, reference compound], for which, in the assay on Jurkat E6-1 cells (Jurkat E6.1, 72 h, Jurkat E6-1 cells, 72 hrs), the IC50 was 0.0017 µM.

As to `C/C=C1\NC(=O)[C@H]2CSSCC/C=C/[C@H](CC(=O)N[C@H](C(C)C)C(=O)N2)OC(=O)[C@H](C(C)C)NC1=O` [Romidepsin, romidepsin, reference compound], the IC50 with Jurkat E6-1 cells (Jurkat E6-1 cells, 72 hrs) was 0.00201 µM.
